Test results published in patent US4711898A, “4-quinolone derivatives having anti-inflammatory, anti-allergic, antitussive, expectorant and antithrombotic activity” (Nippon Shinyaku Co., Ltd., priority 1982, dated 1987).
Read-outs that look alike come from different tables or passages of the source.

Legend:
carrageenin edema = assay: Carrageenin edema at the hind foot of rats; type: in vivo, SD-strain rats; settings: Rattus norvegicus, po, 3 h, read-out: % Inhibition (carrageenin edema)
Experimental: The anti-inflammatory action of the compounds of the present invention were evaluated by measuring the inhibition against carrageenin edema as set forth below. Carrageenin edema at the hind foot of rats: Experimental method. SD-strain rats of body weights of around 150 grams were used, each group consisting of five rats. A solution (0.1 ml) of 0.5% carrageenin dissolved in physiological saline water was subcutaneously injected into the right hind foot pat of the rats and, one hour prior to the injection of carrageenin, 200 mg/kg of test compound was given per os. Foot volumes of the rats before the carrageenin treatment and those of three hours after the treatment were measured and the differences were compared with those of the control group to adopt as a target of the effect of the compounds.

[1] = system: SRS-A (slow reacting substance of anaphylaxis) contraction of ileum; assay: Anti-SRS-A action using ileus of guinea pigs; type: cell-based, Hartley strain male guinea pigs; settings: Cavia porcellus, 5 min, 1/1000 mM; guinea pig ileum; SRS-A 20 units; compound five minutes before; read-out: 1/1000 mM SRS-A Inhibition Ratio %
Experimental: (§1) The compounds of the present invention have been evaluated for their anti-allergenic action by passive cutaneous anaphylatic assay (PCA) in rats and by measuring the anti-SRS-A action using ileus of guinea pigs.
Anti-SRS-A action (An anti-acton against slow reacting substance of anaphylaxis).
Hartley strain male guinea pigs (300 to 350 grams body weight) are killed and 1.0 to 1.5 cm of ileum is immeidiately excised from ileocecal parts and is suspended in 10 ml of Tyrode solution (95% 02 -5% CO2 saturation) containing 10^-7 g/ml of atropine and 10^-6 g/ml of pyrilamine. SRS-A (20 units) (the amount of SRS-A showing the same contradiction as 5 ng of histamine is defined as 1 unit) prepared by using sensitized guinea pig lung is given to cause contraction there. Then antagonistic action of test compounds treated five minutes ago against the contraction is measured and recorded via isotonic transducer. [formula] in which A' is a height of contraction of SRS-A+test compound and A is that of SRS-A.

[2] = system: passive cutaneous anaphylaxis (DNP-As homocytotropic antiserum); assay: passive cutaneous anaphylatic assay (PCA) in rats; type: in vivo, Wistar strain rats; settings: Rattus norvegicus, po, 1 h, 10 mg/kg orally, one hour before antigen, read-out: PCA Inhibition Ratio %
Experimental: as §1
(i) Antiserum abundant in homocytotropic antibody is prepared by the same method as Tada and Okumura did (cf. Journal of Immunology, vol. 106, page 1002, 1971). Thus, 1 mg (calculated as an amount of protein) of DNP-As (2,4-dinitrophenylcoupled ascaris extract) prepared by methods of Strejan and Campbell (Journal of Immunology, vol. 98, p. 893, 1967) and of Eisen (Journal of Amer. Chem. Soc., vol. 75, p 4593, 1953) and 1×10^10pertussis vaccine are administered to each paw of Wistar strain rats (180 to 200 grams body weights) by dividing the dose by four. Five days later, 0.5 mg of DNP-As is administered into muscle of back. Eight days later from the initial immunization, blood is taken from discending aorta under anesthetizing with ether, the resulting serum is stored at -80° and is melted before use.
(ii) Effect of tested compounds is investigated as follows:
Anti-serum obtained by th method (i) is diluted with physiological saline solution double by double successively and 0.05 ml of each diluted solution is administered into the back of Wistar strain rats (140 to 160 grams body weight) intradermally. After 72 hours, a solution of 2 mg (calculated as protein) of DNP-As and 2.5 mg of Evans Blue dissolved in 1 ml of physiological saline solution is administered intraveously at a dose of 5 ml/kg. After 30 minutes from the antigen solution administration, the animals are killed and the diameters of blue spots which appeared at the place where antiserum was administered were measured. The PCA test is conducted by the same method as already described using a diluted solutions of antiserum which always show 10 mm or more of spot diameters and the effect of the test compounds is judged. Thus antiserum diluted solutions are administered into two places in the back. Test compounds are administered orally at the dose of 10 mg/kg one hour before administration of the antigen solution. From the skin of reacted parts of killed animals, leaked or emitted dyestuff is extracted and the amount of the dyestuff is measured. The inhibition ratio is calculated by the following expression: [formula] in which A' is an amount of dyestuff in the group treated with the test compounds and A is that in the control group.

[3] = 200 mg/kg per os, one hour before carrageenin, foot volume three hours after

Row | SMILES | inhibition in vivo at 200 mg/kg (carrageenin edema) [%] | inhibition at 1 µM [1] [%] | inhibition in vivo at 200 mg/kg (carrageenin edema; [3]) [%] | inhibition in vivo at 10 mg/kg [2] [%]
1 | CC(=O)Oc1ccccc1C(=O)O [Acetylsalicylic Acid, reference compound] | 31.6 |  |  | 
2 | COC(=O)c1ccc2c(c1)C(=O)CC(c1ccccc1)=N2 [Example 1, Methyl 2-phenyl-4-quinolone-6-carboxylate] |  | 77 | 34 | 25.4
3 | CCOC(=O)c1ccc2c(c1)C(=O)CC(c1ccccc1)=N2 [Example 4, Ethyl 2-phenyl-4-quinolone-6-carboxylate] |  | 27.5 | 14.2 | 25.7
4 | O=C(O)c1ccc2[nH]c(-c3ccccc3Cl)cc(=O)c2c1 [Example 22] |  | 26.4 | 14.8 | 35.8
5 | O=C(O)c1ccc2[nH]c(-c3ccc(Cl)c(Cl)c3)cc(=O)c2c1 [Example 38] |  | 20.5 | 12.8 | 20.4
6 | COC(=O)c1ccc2[nH]c(-c3cc(Cl)ccc3Cl)cc(=O)c2c1 [Example 39] |  | 66 | 30 | 24.8
7 | COC(=O)c1ccc2[nH]c(-c3ccccc3C)cc(=O)c2c1 [Example 41] |  | 29.1 | 18.9 | 29.5
8 | COC(=O)c1ccc2[nH]c(-c3ccc(OC)cc3OC)cc(=O)c2c1 [Example 64] |  | 48.2 | 10.1 | 17.7
9 | COC(=O)c1ccc2[nH]c(-c3ccncc3)cc(=O)c2c1 [Example 70] |  | 21.4 | 17.1 | 22.3
10 | COC(=O)c1ccc2[nH]c(-c3ccco3)cc(=O)c2c1 [Example 76] |  | 25.6 | 14.5 | 21.3
11 | CCOC(=O)c1cccc2c(=O)cc(-c3cccc(Cl)c3)[nH]c12 [Example 86] |  | 62.5 | 29.5 | 20.1
12 | CCOC(=O)c1cccc2c(=O)cc(-c3ccc(OC)c(OC)c3)[nH]c12 [Example 98] |  | 20.4 | 16.1 | 16.4
13 | COc1ccc(-c2cc(=O)c3cccc(C(=O)O)c3[nH]2)cc1OC [Example 99] |  | 21.7 | 36.8 | 13.2
14 | CCOC(=O)c1cccc2c(=O)cc(-c3ccccc3C)[nH]c12 [Example 104] |  | 19.8 | 53.7 | 10.4
15 | CCOC(=O)c1cccc2c(=O)cc(-c3ccc(C(C)C)cc3)[nH]c12 [Example 106] |  | 44 | 50.9 | 33.4
16 | CCOC(=O)c1cccc2c(=O)cc(-c3ccc(OC)cc3OC)[nH]c12 [Example 108] |  | 95 | 51 | 14
17 | O=C1CC(c2ccccc2Cl)=Nc2c1cccc2C(=O)OCCO [Example 109, Beta-Hydroxyethyl 2-(2-chlorophenyl)-4-quinolone-8-carboxylate] |  | 100 | 30.7 | 29.2
18 | O=C(OCCCCCO)c1cccc2c(=O)cc(-c3ccccc3Cl)[nH]c12 [Example 116] |  | 23.7 |  | 15

Row | SMILES | inhibition in vivo at 200 mg/kg (carrageenin edema) [%] | inhibition at 1 µM [1] [%] | inhibition in vivo at 200 mg/kg (carrageenin edema; [3]) [%] | inhibition in vivo at 10 mg/kg [2] [%]
19 | O=C(OCCCCCCO)c1cccc2c(=O)cc(-c3ccccc3Cl)[nH]c12 [Example 117] |  | 8.7 |  | 50
20 | O=C(OCCOc1ccccc1)c1cccc2c(=O)cc(-c3ccccc3Cl)[nH]c12 [Example 119] |  | 73.4 |  | 47
21 | N#CCOC(=O)c1cccc2c(=O)cc(-c3ccccc3Cl)[nH]c12 [Example 121] |  | 3.4 |  | 54.4
22 | CC(=O)COC(=O)c1cccc2c(=O)cc(-c3ccccc3Cl)[nH]c12 [Example 122] |  | 20.4 |  | 14.7
23 | CCOC(=O)COC(=O)c1cccc2c(=O)cc(-c3ccccc3Cl)[nH]c12 [Example 123] |  | 17.4 |  | 16
24 | CCOC(=O)CCCOC(=O)c1cccc2c(=O)cc(-c3ccccc3Cl)[nH]c12 [Example 124] |  |  | 14.5 | 
25 | O=C(OCC(O)CO)c1cccc2c(=O)cc(-c3ccccc3Cl)[nH]c12 (stereo not drawn) [Example 126] |  | 19.2 |  | 15.3
26 | CC(C)COCCOC(=O)c1cccc2c(=O)cc(-c3ccccc3Cl)[nH]c12 [Example 127] |  | 25.4 |  | 13.3
27 | O=C(OCCOCCO)c1cccc2c(=O)cc(-c3ccccc3Cl)[nH]c12 [Example 128] |  | 25 |  | 10.7
28 | CCOCCOCCOC(=O)c1cccc2c(=O)cc(-c3ccccc3Cl)[nH]c12 [Example 129] |  | 10.2 |  | 5.4
29 | O=C(OCCO)c1cccc2c(=O)cc(-c3cccc(Cl)c3)[nH]c12 [Example 132] |  | 55.5 |  | 18.6
30 | Cc1ccccc1-c1cc(=O)c2cccc(C(=O)OCCO)c2[nH]1 [Example 134] |  | 5.2 |  | 10.8
31 | Cc1ccc(-c2cc(=O)c3cccc(C(=O)OCCO)c3[nH]2)cc1 [Example 135] |  | 27.3 |  | 35
32 | Cc1ccc(-c2cc(=O)c3cccc(C(=O)OCCO)c3[nH]2)cc1C [Example 137] |  | 10.8 |  | 20
33 | COc1ccc(-c2cc(=O)c3cccc(C(=O)OCCO)c3[nH]2)cc1 [Example 138] |  | 25.4 |  | 12.7
34 | COc1ccc(-c2cc(=O)c3cccc(C(=O)OCCO)c3[nH]2)c(OC)c1 [Example 139] |  | 63.3 |  | 18.4
35 | COc1ccc(-c2cc(=O)c3cccc(C(=O)OCCO)c3[nH]2)cc1OC [Example 140] |  | 18.3 |  | 19.4
